Results reported in patent publication US8932597B2 (priority 2008, dated 2015).

How the values were obtained:
HuM2e antibody 23K12 = assay type: binding, human
[1] = system: anti-M2 human monoclonal antibody Z3G1; assay type: binding

Substance | Signal (peptides that bind to 23K21 and 8I10) (HuM2e antibody 23K12) | Signal (peptides that show specific binding to Z3G1) [1] | Signal (peptides that bind to Z3G1) [1]
250 (CSLLTEVETCTEVETPIRNEWGSRSC; epitope peptide) [compound 250] | 786 | 2474 | –
264 (CSLLTEVETCVETPIRNEWGSRSNDC; epitope peptide) [compound 264] | 707 | 2374 | –
268 (SLLTEVETPIRNECGCRCNDSSD; epitope peptide) [compound 268] | 682 | 2554 | –
283 (CSLLTEVGSLLTEV; epitope peptide) [compound 283] | 2494 | 2903 | –
284 (ASLLTEVGSLLTCV; epitope peptide) [compound 284] | 2443 | 2358 | –
285 (MSLLTEVGMSLLTCV; epitope peptide) [compound 285] | 2389 | – | 2872
286 (CSLLTEVGMSLLTCV; epitope peptide) [compound 286] | 2311 | – | 2768
287 (MSLLTEVGMSLLTEV; epitope peptide) [compound 287] | 2267 | – | 2878
288 (CSCLCEVGMSLLTEV; epitope peptide) [compound 288] | 2154 | – | 1812
289 (MSLCTEVGMSLCTEV; epitope peptide) [compound 289] | 2153 | – | 1093
290 (CSLLTEVGSLLTCV; epitope peptide) [compound 290] | 2142 | 2503 | –
291 (MSLLTEVGMCLCTCV; epitope peptide) [compound 291] | 2110 | – | 2842
292 (CSLLTEVGSLLTEC; epitope peptide) [compound 292] | 2094 | 2213 | –
293 (CSLLTEVGMSLLTEV; epitope peptide) [compound 293] | 2039 | – | 2827
294 (MSCLCECGMSLLTEV; epitope peptide) [compound 294] | 2039 | – | 1006
296 (MSLLTEVGMCLLTEV; epitope peptide) [compound 296] | 2023 | – | 2809
297 (CSLLTEVGMCLCTCV; epitope peptide) [compound 297] | 1972 | – | 2649
299 (SLLTEVGCLCTCV; epitope peptide) [compound 299] | 1963 | 2346 | –
300 (SLLTEVETKIRNEWGCRCNDSSD; epitope peptide) [compound 300] | 1960 | 2485 | –
301 (SLLCEVGCSLLTEC; epitope sequence) [compound 301] | 1959 | 2637 | –
302 (ASLLTEVGSCLTEV; epitope sequence) [compound 302] | 1944 | 2770 | –
303 (CSLLTEVGMCLLTEV; epitope sequence) [compound 303] | 1941 | – | 2618
304 (MSLCTEVGMSLLCEV; epitope peptide) [compound 304] | 1935 | – | 2616
309 (CSLLTEVGMSLLCEV; epitope peptide) [compound 309] | 1891 | – | 2734
